This is an account of results in patent US10870925B2, “Arrays” (SENGENICS CORPORATION PTE LTD, priority 2001, dated 2020).

One data set addresses T1, cytochrome P450 3A4 (Homo sapiens, UniProt P08684).
T1 construct: host or cells: microsomes
Briefly: BzRes oxidation and ketoconazole inhibition, cytochrome P450 3A4 microsomes in solution and encapsulated in agarose. In kind it is biochemical. Particulars: standard error in parentheses.

The next data set concerns the target T2, 3A4*WT (Homo sapiens, UniProt P08684).
T2 construct: His-tag (concluded from Ni-NTA / Talon purification); biotinylated tag (BCCP; concluded from streptavidin detection); made in house; host or cells: E. coli XL-10 gold
Briefly: BzRes turnover and ketoconazole inhibition, cumene hydrogen peroxide activated purified P450 3A4 isoform. The conditions noted are these: standard error in parentheses. Format: biochemical.

The target of a further data set is T3, 3A4*2 (Homo sapiens, UniProt P08684, S222P).
T3 construct: His-tag (concluded from Ni-NTA / Talon purification); biotinylated tag (BCCP; concluded from streptavidin detection); made in house; host or cells: E. coli XL-10 gold
T3 sequence (P08684 whole entry S222P): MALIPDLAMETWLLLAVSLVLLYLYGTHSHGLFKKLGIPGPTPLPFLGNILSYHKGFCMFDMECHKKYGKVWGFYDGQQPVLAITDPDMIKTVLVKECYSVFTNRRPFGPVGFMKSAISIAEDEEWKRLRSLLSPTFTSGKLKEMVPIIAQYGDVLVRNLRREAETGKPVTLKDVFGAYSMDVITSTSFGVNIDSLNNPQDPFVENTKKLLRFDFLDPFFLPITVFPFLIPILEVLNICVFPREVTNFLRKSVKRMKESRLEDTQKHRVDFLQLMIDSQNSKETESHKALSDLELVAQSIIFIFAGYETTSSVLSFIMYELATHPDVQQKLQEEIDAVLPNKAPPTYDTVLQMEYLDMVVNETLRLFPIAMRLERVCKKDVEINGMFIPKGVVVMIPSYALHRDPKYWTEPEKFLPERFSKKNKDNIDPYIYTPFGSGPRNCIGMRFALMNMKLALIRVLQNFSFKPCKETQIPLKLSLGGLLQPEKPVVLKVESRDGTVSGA
The description is as above. Particulars: standard error in parentheses. In kind it is biochemical.

A further data set addresses T4, 3A4*3 (Homo sapiens, UniProt P08684, M445T).
T4 construct: His-tag (concluded from Ni-NTA / Talon purification); biotinylated tag (BCCP; concluded from streptavidin detection); made in house; host or cells: E. coli XL-10 gold
Described as above. Particulars: standard error in parentheses. Format: biochemical.

The target of another data set is T5, 3A4*4 (Homo sapiens, UniProt P08684, I118V).
T5 construct: His-tag (concluded from Ni-NTA / Talon purification); biotinylated tag (BCCP; concluded from streptavidin detection); made in house; host or cells: E. coli XL-10 gold
T5 sequence (P08684 whole entry I118V): as the sequence (P08684 whole entry S222P) above, with I118V, P222S counted along it
The description is as above. Format: biochemical. The conditions noted are these: standard error in parentheses.

The target of the next data set is T6, 3A4*5 (Homo sapiens, UniProt P08684, P218R).
T6 construct: His-tag (concluded from Ni-NTA / Talon purification); biotinylated tag (BCCP; concluded from streptavidin detection); made in house; host or cells: E. coli XL-10 gold
T6 sequence (P08684 whole entry P218R): as the sequence (P08684 whole entry S222P) above, with P218R, P222S counted along it
The description is as above. Format: biochemical. Particulars: standard error in parentheses.

The target of the next data set is 3A4*15 (Homo sapiens, UniProt P08684, R162Q). The data set is described as above.
3A4*15, sequence (P08684 whole entry R162Q): as the sequence (P08684 whole entry S222P) above, with R162Q, P222S counted along it
The subject of data set [1] is GADD45 promoter element DNA. Briefly: Quantitative DNA binding on the p53 protein microarray (33P-labelled duplex DNA). The conditions noted are these: 33P GADD45 duplex DNA; for DNA binding Bmax (% wild-type) / Kd: room temperature 30 min, confidence limits in parentheses; for GADD45 DNA binding, in words: p53 microarray.
Setting [2] is: Gel encapsulated (agarose) microsomes.
The mark [3] stands for this setting: 200 μM cumene hydrogen peroxide.
Where [4] appears, read: normalised for P450 concentration and scaled to wild-type.

Broadly, the Km is the concentration of substrate that gives half-maximal velocity. A word on the Kd: it is the constant that tells how readily two partners part at equilibrium.

T1 sequence (P08684 whole entry): as the sequence (P08684 whole entry S222P) above, with P222S counted along it
T4 sequence (P08684 whole entry M445T): as the sequence (P08684 whole entry S222P) above, with P222S, M445T counted along it
T2 sequence (P08684 whole entry): as the sequence (P08684 whole entry S222P) above, with P222S counted along it

Take `O=c1ccc2nc3ccc(OCc4ccccc4)cc3oc-2c1` [BzRes, resorufin benzyl ether]: the “BzRes Oxidation Vmax (% of soluble)” value at cytochrome P450 3A4 (setting [2]) is on record as 50 (6) % of soluble; at cytochrome P450 3A4 (Soluble microsomes), 100 (6) % of soluble. The Km is 49 µM on cytochrome P450 3A4 (setting [2]); 20 µM at cytochrome P450 3A4 (Soluble microsomes); 104 µM on 3A4*WT (setting [3]); 62 µM at 3A4*2 (setting [3]); 54 µM on 3A4*3 (setting [3]); 111 µM at 3A4*4 (setting [3]). The Km at 3A4*5 (setting [3]) was determined as 101 µM; at 3A4*15 (read-out: KM BzRes, 200 μM cumene hydrogen peroxide, standard error in parentheses), 89 µM. In addition, the “Vmax BzRes” value on 3A4*WT (setting [4]) was 100 (34); on 3A4*2 (setting [4]), 65 (9); on 3A4*3 (setting [4]), 93 (24); on 3A4*4 (setting [4]) it was 69 (22); on 3A4*5 (setting [4]), 59 (16); on 3A4*15 (normalised for P450 concentration and scaled to wild-type, standard error in parentheses), 111 (23).
Consider “G325V: p53 mutant protein, His- and biotin-tagged, E. coli expressed [Mutation G325V]”, for which, in data set [1], the “DNA binding Bmax (% wild-type)” value is 73 (67-79) % wild-type; the Kd came to 7 nM; the “GADD45 DNA binding, in words” value is “near wild-type affinity”.
On the same counts, the results for “R181C: p53 mutant protein, His- and biotin-tagged, E. coli expressed [Mutation R181C]” are 88 (81-95) % wild-type, 11 nM and “wild-type binding”.
On the same counts, the results for “R181H: p53 mutant protein, His- and biotin-tagged, E. coli expressed [Mutation R181H]” are 48 (40-57) % wild-type, 11 nM and “wild-type binding”.
On to “R280K: p53 mutant protein, His- and biotin-tagged, E. coli expressed [Mutation R280K]”, for which, in data set [1], the “DNA binding Bmax (% wild-type)” value is recorded as 54 (40-70) % wild-type and the Kd amounted to 21 nM.
On the same counts, the results for “S392A: p53 mutant protein, His- and biotin-tagged, E. coli expressed [Mutation S392A]” are 121 (107-136) % wild-type and 10 nM.
